The values that follow come from patent publication US20250115583A1, “BICYCLIC INDAZOLE GLUCOCORTICOID RECEPTOR ANTAGONISTS” (Corcept Therapeutics Incorporated, priority 2021, published 2025).

The experiment deals with glucocorticoid receptor (Homo sapiens (Human), UniProt P04150). Nature of the experiment: HepG2 TAT assay: inhibition of dexamethasone-induced tyrosine aminotransferase (TAT) activity. The format is cell-based. The note with it: HepG2 cells, challenge of 100 nM dexamethasone, 18-24 hr; IC50 converted to Ki by Cheng and Prusoff equation. In short, it runs like this: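 Cells lysed 15 min at 4 °C; TAT enzyme reaction 2 h at 37 °C, stopped with KOH, 30 min further at 37 °C. Inhibition fitted to 4-parameter logistic.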
Chain of glucocorticoid receptor (P04150 whole entry): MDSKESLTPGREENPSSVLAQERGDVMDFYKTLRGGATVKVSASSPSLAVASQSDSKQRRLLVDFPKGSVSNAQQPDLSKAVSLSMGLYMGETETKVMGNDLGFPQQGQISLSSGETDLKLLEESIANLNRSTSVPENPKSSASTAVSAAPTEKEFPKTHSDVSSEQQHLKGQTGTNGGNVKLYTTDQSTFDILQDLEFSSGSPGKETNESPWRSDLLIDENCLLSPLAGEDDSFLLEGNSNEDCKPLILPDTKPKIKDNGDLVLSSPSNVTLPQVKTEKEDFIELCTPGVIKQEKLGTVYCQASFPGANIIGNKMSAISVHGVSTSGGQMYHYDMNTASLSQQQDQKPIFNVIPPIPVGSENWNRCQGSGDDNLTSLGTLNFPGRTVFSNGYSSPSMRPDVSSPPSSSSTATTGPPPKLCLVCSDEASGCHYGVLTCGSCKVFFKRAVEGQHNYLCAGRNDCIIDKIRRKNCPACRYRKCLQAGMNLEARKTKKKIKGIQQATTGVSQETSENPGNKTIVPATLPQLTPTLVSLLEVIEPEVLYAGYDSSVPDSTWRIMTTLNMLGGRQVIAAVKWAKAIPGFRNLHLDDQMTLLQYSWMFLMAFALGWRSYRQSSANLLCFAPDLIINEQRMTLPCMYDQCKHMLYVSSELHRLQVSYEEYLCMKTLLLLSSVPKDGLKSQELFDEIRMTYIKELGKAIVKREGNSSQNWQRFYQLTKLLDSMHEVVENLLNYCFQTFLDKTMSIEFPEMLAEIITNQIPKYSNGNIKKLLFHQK

Take `Cc1cc2c(cnn2-c2ccc(F)cc2)cc1[C@@]12CN(C(=O)c3ccc(C#N)cn3)C[C@@H]1[C@H]2c1ccccc1` (single isomer, unassigned) [Example 163, 6-(1-(1-(4-fluorophenyl)-6-methyl-1H-indazol-5-yl)-6-phenyl-3-azabicyclo[3.1.0]hexane-3-carbonyl)nicotinonitrile]: the affinity, expressed as Ki, was 19 nM.
In turn, `CO[C@]1(c2ccccc2)C[C@@H]2CN(S(=O)(=O)c3cnn(C)c3)C[C@]2(c2cc3cnn(-c4ccc(F)cc4)c3cc2C)C1` [Example 5, 1-(4-fluorophenyl)-5-((3aR,5R,6aS)-5-methoxy-2-((1-methyl-1H-pyrazol-4-yl)sulfonyl)-5-phenylhexahydrocyclopenta[c]pyrrol-3a(1H)-yl)-6-methyl-1H-indazole] displayed a Ki of 240 nM.
Take `Cc1cc2c(cnn2-c2ccc(F)cc2)cc1[C@@]12CN(C(=O)c3ncccc3C(F)(F)F)C[C@@H]1[C@H]2c1ccccc1` (single isomer, unassigned) [Example 148, (1-(1-(4-fluorophenyl)-6-methyl-1H-indazol-5-yl)-6-phenyl-3-azabicyclo[3.1.0]hexan-3-yl)(3-(trifluoromethyl)pyridin-2-yl)methanone]: the Ki came to 9.2 nM.
As for `Cc1cc2c(cnn2-c2ccc(F)cc2)cc1[C@@]12CN(C(=O)c3ccccc3N3CCOCC3)C[C@@H]1[C@H]2c1ccccc1` (stereo in doubt) [Example 174, (1-(1-(4-fluorophenyl)-6-methyl-1H-indazol-5-yl)-6-phenyl-3-azabicyclo[3.1.0]hexan-3-yl)(2-morpholinophenyl)methanone], the figure is 39 nM; as for `Cc1csc(C(=O)N2C[C@@H]3[C@@H](c4ccccc4)[C@]3(c3cc4cnn(-c5ccc(F)cc5)c4cc3C)C2)n1` (stereo in doubt) [Example 175, (1-(1-(4-fluorophenyl)-6-methyl-1H-indazol-5-yl)-6-phenyl-3-azabicyclo[3.1.0]hexan-3-yl)(4-methylthiazol-2-yl)methanone], 13 nM; as for `Cc1cc2c(cnn2-c2ccc(F)cc2)cc1[C@@]12CN(C(=O)c3cc(C(F)(F)F)ccn3)C[C@@H]1[C@H]2c1ccccc1` (single isomer, unassigned) [Example 150, (1-(1-(4-fluorophenyl)-6-methyl-1H-indazol-5-yl)-6-phenyl-3-azabicyclo[3.1.0]hexan-3-yl)(4-(trifluoromethyl)pyridin-2-yl)methanone], 18 nM.
As for `Cc1cc2c(cnn2-c2ccc(F)cc2)cc1[C@@]12CN(C(=O)c3ccncc3)C[C@@H]1[C@H]2c1ccccc1` (single isomer, unassigned) [Example 165, (1-(1-(4-fluorophenyl)-6-methyl-1H-indazol-5-yl)-6-phenyl-3-azabicyclo[3.1.0]hexan-3-yl)(pyridin-4-yl)methanone], the figure is 84 nM.
`COC(=O)N1C[C@@H]2[C@@H](c3ccccc3)[C@]2(c2cc3cnn(-c4ccc(F)cc4)c3cc2C)C1` (single isomer, unassigned) [Example 118, methyl 1-(1-(4-fluorophenyl)-6-methyl-1H-indazol-5-yl)-6-phenyl-3-azabicyclo[3.1.0]hexane-3-carboxylate] gave a Ki of 40 nM.
As for `CCOC(=O)N1C[C@@H]2[C@@H](c3ccccc3)[C@]2(c2cc3cnn(-c4ccc(F)cc4)c3cc2C)C1` (single isomer, unassigned) [Example 122, ethyl 1-(1-(4-fluorophenyl)-6-methyl-1H-indazol-5-yl)-6-phenyl-3-azabicyclo[3.1.0]hexane-3-carboxylate], the figure is 22 nM.
With `CO[C@@]1(c2ccccc2)C[C@H]2CN(C(=O)c3ccccc3)C[C@@]2(c2cc3cnn(-c4ccc(F)cc4)c3cc2C)C1` (single isomer, unassigned) [Example 20, (3a-(1-(4-fluorophenyl)-6-methyl-1H-indazol-5-yl)-5-methoxy-5-phenylhexahydrocyclopenta[c]pyrrol-2(1H)-yl)(phenyl)methanone] the figure was 79 nM.
As for `Cc1cc2c(cnn2-c2ccc(F)cc2)cc1[C@@]12CN(C(=O)c3ccccc3)C[C@@H]1[C@H]2CN1CCOCC1` (stereo in doubt) [Example 180, (1-(1-(4-fluorophenyl)-6-methyl-1H-indazol-5-yl)-6-(morpholinomethyl)-3-azabicyclo[3.1.0]hexan-3-yl)(phenyl)methanone], the figure is 600 nM; as for `CO[C@@]1(c2ccccc2)C[C@H]2CN(S(=O)(=O)c3cnn(C(C)C)n3)C[C@@]2(c2cc3cnn(-c4ccc(F)cc4)c3cc2C)C1` [Example 23], 30 nM.
For `Cc1cc2c(cnn2-c2ccc(F)cc2)cc1[C@]12CN(S(=O)(=O)c3cnn(C)n3)C[C@H]1[C@@H]2c1ccccc1` [Example 72], the affinity, expressed as Ki, was 160 nM.
With `Cc1cc2c(cnn2-c2ccc(F)cc2)cc1[C@@]12CN(S(=O)(=O)c3cccnc3)C[C@@H]1[C@H]2c1ccccc1` [Example 90] the figure was 14 nM; with `Cc1cc2c(cnn2-c2ccc(F)cc2)cc1[C@@]12CN(C(=O)c3ccccc3)C[C@@H]1[C@H]2c1cccnc1` (stereo in doubt) [Example 173, (1-(1-(4-fluorophenyl)-6-methyl-1H-indazol-5-yl)-6-(pyridin-3-yl)-3-azabicyclo[3.1.0]hexan-3-yl)(phenyl)methanone], 130 nM; with `Cc1cc2c(cnn2-c2ccc(F)cc2)cc1[C@]12CN(S(=O)(=O)c3cnn(C)n3)C[C@H]1[C@@H]2C(=O)Nc1ccc(F)cn1` (stereo in doubt) [Example 54, 1-(1-(4-fluorophenyl)-6-methyl-1H-indazol-5-yl)-N-(5-fluoropyridin-2-yl)-3-((2-methyl-2H-1,2,3-triazol-4-yl)sulfonyl)-3-azabicyclo[3.1.0]hexane-6-carboxamide], 33 nM.
As for `Cc1cc2c(cnn2-c2ccc(F)cc2)cc1C12CC(Oc3ccccc3)CC1CN(S(C)(=O)=O)C2` (centres unmarked) [Example 36, 1-(4-fluorophenyl)-6-methyl-5-(2-(methylsulfonyl)-5-phenoxyhexahydrocyclopenta[c]pyrrol-3a(1H)-yl)-1H-indazole], the figure is 72 nM; as for `Cc1cc2c(cnn2-c2ccc(F)cc2)cc1[C@]12CN(S(=O)(=O)c3cnn(C)n3)C[C@H]1[C@@H]2C(=O)N(C)c1ccccc1` [Example 64], 130 nM; as for `COc1ccnc(C(=O)N2C[C@@H]3[C@@H](c4ccccc4)[C@]3(c3cc4cnn(-c5ccc(F)cc5)c4cc3C)C2)c1` (stereo in doubt) [Example 169, (1-(1-(4-fluorophenyl)-6-methyl-1H-indazol-5-yl)-6-phenyl-3-azabicyclo[3.1.0]hexan-3-yl)(4-methoxypyridin-2-yl)methanone], 35 nM.
For `Cc1cc2c(cnn2-c2ccc(F)cc2)cc1[C@@]12CN(C(=O)c3ccn(C)n3)C[C@@H]1[C@H]2c1ccccc1` (stereo in doubt) [Example 154, (1-(1-(4-fluorophenyl)-6-methyl-1H-indazol-5-yl)-6-phenyl-3-azabicyclo[3.1.0]hexan-3-yl)(1-methyl-1H-pyrazol-3-yl)methanone], the inhibitory constant (Ki) worked out at 16 nM.
As for `Cc1cc2c(cnn2-c2ccc(F)cc2)cc1[C@@]12CN(S(=O)(=O)C3CC3)C[C@@H]1[C@H]2c1ccccc1` [Example 85], the figure is 21 nM; as for `Cc1cc2c(cnn2-c2ccc(F)cc2)cc1[C@@]12CN(S(=O)(=O)c3cnn(C)n3)C[C@@H]1[C@H]2c1ccccc1` [Example 70], 24 nM.
With `Cc1cc2c(cnn2-c2ccc(F)cc2)cc1C12CC(Oc3ccccc3)CC1CN(C(=O)c1ccccc1)C2` (centres unmarked) [Example 39] the figure was 190 nM; with `COCCS(=O)(=O)N1C[C@@H]2[C@@H](c3ccccc3)[C@]2(c2cc3cnn(-c4ccc(F)cc4)c3cc2C)C1` [Example 86], 32 nM.
As for `Cc1cc2c(cnn2-c2ccc(F)cc2)cc1[C@@]12CN(C(=O)c3cccc(N4CCOCC4)c3)C[C@@H]1[C@H]2c1ccccc1` (stereo in doubt) [Example 142, (1-(1-(4-fluorophenyl)-6-methyl-1H-indazol-5-yl)-6-phenyl-3-azabicyclo[3.1.0]hexan-3-yl)(3-morpholinophenyl)methanone], the figure is 15 nM; as for `Cc1cc2c(cnn2-c2ccc(F)cc2)cc1[C@@]12CN(C(=O)c3ncn(C)n3)C[C@@H]1[C@H]2c1ccccc1` (single isomer, unassigned) [Example 172, (1-(1-(4-fluorophenyl)-6-methyl-1H-indazol-5-yl)-6-phenyl-3-azabicyclo[3.1.0]hexan-3-yl)(1-methyl-1H-1,2,4-triazol-3-yl)methanone], 26 nM; as for `CCn1ncc(S(=O)(=O)N2CC3CC(OC)(c4ccccc4)CC3(c3cc4cnn(-c5ccc(F)cc5)c4cc3C)C2)n1` (centres unmarked) [Example 26], 53 nM.
Take `CO[C@@]1(c2ccccc2)C[C@@H]2CN(S(=O)(=O)c3cnn(C)c3)C[C@]2(c2cc3cnn(-c4ccc(F)cc4)c3cc2C)C1` [Example 7, 1-(4-fluorophenyl)-5-((3aR,5S,6aS)-5-methoxy-2-((1-methyl-1H-pyrazol-4-yl)sulfonyl)-5-phenylhexahydrocyclopenta[c]pyrrol-3a(1H)-yl)-6-methyl-1H-indazole]: the affinity corresponds to a Ki of 350 nM.
`Cc1cc2c(cnn2-c2ccc(F)cc2)cc1[C@@]12CN(S(=O)(=O)c3cnn(C)n3)C[C@@H]1[C@H]2C(=O)NC1CCCC1` [Example 61] yielded a Ki of 200 nM. Compared with the last molecule, the Ki is about 1.8-fold lower.
